According to paper PMC12675575, “A BRET biosensor for measuring uncompetitive engagement of PRMT5 complexes in cells” (Nature Communications, 2025):
Like-named read-outs stand apart in the source and are kept apart here.

Molecular target: NanoLuc-PRMT5 co-expressed with WDR77 (Homo sapiens, UniProt O14744)
Assay: Live-cell NanoBRET target engagement with BRET probe CBH-002 in HEK293 cells expressing NanoLuc-PRMT5 and unlabeled WDR77
Type: cell-based
Set-up: host or cells: HEK293
Conditions: HEK293, Figure S2H, log([compound]), read-out: normalised BRET, Bio rep 1-3; for remaining activity at 0.3715 µM: uM -0.43; for remaining activity at 0.04074 µM: uM -1.39; for remaining activity at 0.0138 µM: uM -1.86; for remaining activity at 0.004571 µM: uM -2.34; for remaining activity at 0.001514 µM: uM -2.82; for remaining activity at 0.0005129 µM: uM -3.29; for remaining activity at 0.0001698 µM: uM -3.77
Method: HEK293 cells (ATCC) were cultured in DMEM (Thermo Fisher) + 10% (v/v) FBS (Seredigm), and HCT116 cells (Horizon Discovery, #PAR-034 and #R02-033) were cultured in McCoy’s 5A (Thermo Fisher) + 10% FBS, with incubation in a humidified, 37 °C/5% CO2 incubator. Cells were split 1–3 days prior to performing experiments and used at roughly 80% confluency. […] Cells were transfected according to the manufacturer’s protocol using FuGENE HD (Promega). NanoLuc fusion DNA was diluted into Transfection Carrier DNA (Promega) in Opti-MEM at a ratio of 1:9 (mass/mass), and FuGENE HD was added at a ratio of 1:3 (μg DNA:μL lipid). […] Formed complexes were combined with cells resuspended to a density of 2 × 10^5 cells/mL in Opti-MEM + 1% FBS at a ratio of 1:20 (vol:vol). […] Cells were seeded at a density of 2 × 10^5 cells/mL in Opti-MEM + 1% FBS in 100 μL (96-well). The BRET probe CBH-002 was prepared first as a 100× stock in 100% DMSO (Sigma) and then diluted to a 20× stock in NanoBRET Tracer Dilution buffer (Promega). Test compounds were prepared as 1000× stocks in 100% DMSO and diluted to 10× stocks in Opti-MEM to prepare working stocks. […] NanoBRET Complete 3x Substrate was prepared by combining Nano-Glo Substrate and Extracellular NanoLuc Inhibitor in Opti-MEM, according to the manufacturer’s protocol (Promega).
BRET ratio values were calculated by dividing the acceptor by the donor signal, and raw BRET was converted to milli-BRET (mBRET) units (mBu) by multiplying by 1000.
EC50 values were obtained by fitting the BRET probe and compound affinity curves to a sigmoidal four-parameter fit model in Graphpad Prism:1 Y=Ymin+Ymax−Ymin/1+10^LogEC50−Xh where h is the Hill Slope.
When normalized BRET was used, mBRET values were normalized using2 NormalizedBRET%=(Y−BRETmin)/BRETmax−BRETmin where y = mBRET in the presence of test compound and BRET probe, BRETmin = mBRET at the highest concentration (saturating) of test compound and BRET probe, and BRETmax = mBRET in the presence of vehicle (DMSO) and BRET probe.
Normalized concentration-response curves showing full competition were fit using a 2-parameter model:3 Y=100/1+10^LogEC50−Xh
In situations where only partial competition was observed, the normalized concentration-response curves were fit using Eq. 1 and where Ymin was constrained to >0.

NanoLuc-PRMT5 co-expressed with WDR77, sequence (O14744 whole entry): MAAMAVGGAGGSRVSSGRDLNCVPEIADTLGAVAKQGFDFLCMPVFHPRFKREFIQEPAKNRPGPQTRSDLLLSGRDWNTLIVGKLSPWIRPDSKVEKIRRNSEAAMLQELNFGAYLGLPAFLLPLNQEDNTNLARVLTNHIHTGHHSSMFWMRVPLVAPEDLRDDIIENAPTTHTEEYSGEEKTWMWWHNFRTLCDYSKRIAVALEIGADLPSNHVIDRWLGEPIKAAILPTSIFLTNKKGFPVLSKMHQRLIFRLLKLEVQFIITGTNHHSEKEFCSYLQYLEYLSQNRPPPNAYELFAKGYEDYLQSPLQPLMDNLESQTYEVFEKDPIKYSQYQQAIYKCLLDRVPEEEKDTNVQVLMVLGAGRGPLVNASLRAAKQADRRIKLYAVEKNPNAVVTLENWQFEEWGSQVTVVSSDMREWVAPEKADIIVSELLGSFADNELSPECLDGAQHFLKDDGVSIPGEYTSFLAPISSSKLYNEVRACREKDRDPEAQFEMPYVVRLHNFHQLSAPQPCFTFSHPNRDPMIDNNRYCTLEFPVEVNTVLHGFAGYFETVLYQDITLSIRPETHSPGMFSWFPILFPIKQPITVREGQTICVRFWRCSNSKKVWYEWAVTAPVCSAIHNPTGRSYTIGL
NanoLuc-PRMT5 co-expressed with WDR77, sequence (Q9BQA1 whole entry partner): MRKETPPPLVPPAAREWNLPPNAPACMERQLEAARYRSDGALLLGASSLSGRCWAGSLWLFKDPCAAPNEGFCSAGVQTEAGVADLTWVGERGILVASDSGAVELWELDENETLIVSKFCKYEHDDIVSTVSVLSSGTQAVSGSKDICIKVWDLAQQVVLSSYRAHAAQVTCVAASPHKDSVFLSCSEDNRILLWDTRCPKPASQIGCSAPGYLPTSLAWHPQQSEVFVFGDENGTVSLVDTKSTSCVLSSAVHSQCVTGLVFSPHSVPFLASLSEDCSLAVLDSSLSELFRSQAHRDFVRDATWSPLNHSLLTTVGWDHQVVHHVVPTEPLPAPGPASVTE

SMILES | remaining activity at […] (uM 0.0458) [%] | remaining activity at […] (uM 0.52) [%] | remaining activity at 0.3715 µM [%] | remaining activity at […] (uM -0.91) [%] | remaining activity at 0.04074 µM [%] | remaining activity at 0.0138 µM [%] | remaining activity at 0.004571 µM [%] | remaining activity at 0.001514 µM [%] | remaining activity at 0.0005129 µM [%] | remaining activity at 0.0001698 µM [%]
CC(C)Oc1ccc(-c2c[nH]cc2CN(C)CCN)cc1 [MS023, reference compound] | 103 | 102 | 102 | 103 | 103 | 104 | 101 | 102 | 103 | 98
CNCCN1CCC(c2cc(CN(C)C(=O)c3cccc(Oc4ccccc4)c3)ccn2)CC1 [TP064, reference compound] | 100 | 99 | 102 | 102 | 101 | 101 | 99.8 | 97.9 | 97.6 | 97.4
